Test [1] addresses Serine/threonine-protein kinase 25 (Homo sapiens) (UniProt O00506). The experiment in a line: Selectivity interaction (KinomeScan (DiscoverX)) EUB0000595a STK25. The conditions noted are these: at 10 µM.
Test [2] concerns the target Ephrin type-A receptor 5 (Homo sapiens) (UniProt P54756). The experiment in a line: Selectivity interaction (KinomeScan (DiscoverX)) EUB0001619a EPHA5. To be noted: at 1 µM.
For test [3], the target named is Cyclin-dependent kinase 5 (Homo sapiens, UniProt Q00535). The experiment in a line: Selectivity interaction (Kinase screening (Nanosyn)) EUB0000604a CDK5.
Cyclin-dependent kinase 5, sequence (Q00535 whole entry, looked up): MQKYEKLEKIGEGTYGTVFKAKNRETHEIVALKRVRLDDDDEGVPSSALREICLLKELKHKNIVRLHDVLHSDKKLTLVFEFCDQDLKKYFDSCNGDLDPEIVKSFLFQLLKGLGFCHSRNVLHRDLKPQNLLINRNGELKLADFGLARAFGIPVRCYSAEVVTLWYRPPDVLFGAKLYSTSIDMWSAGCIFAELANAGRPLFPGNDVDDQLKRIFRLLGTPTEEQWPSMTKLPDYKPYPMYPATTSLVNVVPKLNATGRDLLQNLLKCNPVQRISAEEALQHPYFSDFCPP
Test [4] concerns the target Rho-associated protein kinase 2 (Homo sapiens, UniProt O75116). The experiment in a line: Selectivity interaction (Kinase screening (Upstate/Millipore)) EUB0000604a ROCK2.
Test [5] concerns the target T1, Serine/threonine-protein kinase LATS1 (Homo sapiens) (UniProt O95835).
T1 sequence (whole entry): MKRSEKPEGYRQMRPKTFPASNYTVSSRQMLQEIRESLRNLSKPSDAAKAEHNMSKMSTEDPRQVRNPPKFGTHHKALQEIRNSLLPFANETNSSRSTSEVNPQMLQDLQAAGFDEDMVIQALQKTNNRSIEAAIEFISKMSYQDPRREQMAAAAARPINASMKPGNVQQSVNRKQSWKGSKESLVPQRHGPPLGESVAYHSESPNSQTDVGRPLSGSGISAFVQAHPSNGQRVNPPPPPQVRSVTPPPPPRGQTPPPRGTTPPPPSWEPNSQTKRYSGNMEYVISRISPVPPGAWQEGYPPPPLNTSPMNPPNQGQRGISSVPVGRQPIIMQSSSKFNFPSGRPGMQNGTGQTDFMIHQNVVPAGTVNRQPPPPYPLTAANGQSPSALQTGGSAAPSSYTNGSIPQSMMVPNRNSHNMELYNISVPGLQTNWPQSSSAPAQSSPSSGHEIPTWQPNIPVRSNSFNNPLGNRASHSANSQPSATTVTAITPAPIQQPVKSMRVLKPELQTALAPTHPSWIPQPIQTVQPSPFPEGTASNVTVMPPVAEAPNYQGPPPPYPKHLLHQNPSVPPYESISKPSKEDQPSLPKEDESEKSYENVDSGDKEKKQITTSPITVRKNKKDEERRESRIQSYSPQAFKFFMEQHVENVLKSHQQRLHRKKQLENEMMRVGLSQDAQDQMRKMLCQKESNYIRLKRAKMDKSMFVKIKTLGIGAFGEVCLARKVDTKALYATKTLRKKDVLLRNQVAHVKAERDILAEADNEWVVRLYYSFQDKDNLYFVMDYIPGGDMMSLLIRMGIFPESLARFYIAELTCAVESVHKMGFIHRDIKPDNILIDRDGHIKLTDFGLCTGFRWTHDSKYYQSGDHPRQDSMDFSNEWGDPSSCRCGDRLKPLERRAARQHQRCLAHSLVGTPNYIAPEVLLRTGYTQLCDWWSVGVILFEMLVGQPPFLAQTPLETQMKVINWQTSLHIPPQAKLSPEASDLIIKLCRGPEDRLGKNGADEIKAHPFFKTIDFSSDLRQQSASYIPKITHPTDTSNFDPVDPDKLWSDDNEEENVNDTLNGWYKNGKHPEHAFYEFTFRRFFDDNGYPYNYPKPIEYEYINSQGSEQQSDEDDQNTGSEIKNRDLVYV
The experiment in a line: Selectivity interaction (KinomeScan (DiscoverX)) EUB0000045b LATS1.

Test [6] addresses Serine/threonine-protein kinase NIM1 (Homo sapiens, UniProt Q8IY84).
Test [7] relates to Epidermal growth factor receptor (Homo sapiens), P00533 [UNDEFINED MUTATION]. The experiment in a line: Selectivity interaction (KinomeScan (DiscoverX)) EUB0000655a EGFR. The conditions noted are these: at 10 µM.
Epidermal growth factor receptor (Homo sapiens), P00533 [UNDEFINED MUTATION], sequence (P00533 whole entry, looked up, change not shown): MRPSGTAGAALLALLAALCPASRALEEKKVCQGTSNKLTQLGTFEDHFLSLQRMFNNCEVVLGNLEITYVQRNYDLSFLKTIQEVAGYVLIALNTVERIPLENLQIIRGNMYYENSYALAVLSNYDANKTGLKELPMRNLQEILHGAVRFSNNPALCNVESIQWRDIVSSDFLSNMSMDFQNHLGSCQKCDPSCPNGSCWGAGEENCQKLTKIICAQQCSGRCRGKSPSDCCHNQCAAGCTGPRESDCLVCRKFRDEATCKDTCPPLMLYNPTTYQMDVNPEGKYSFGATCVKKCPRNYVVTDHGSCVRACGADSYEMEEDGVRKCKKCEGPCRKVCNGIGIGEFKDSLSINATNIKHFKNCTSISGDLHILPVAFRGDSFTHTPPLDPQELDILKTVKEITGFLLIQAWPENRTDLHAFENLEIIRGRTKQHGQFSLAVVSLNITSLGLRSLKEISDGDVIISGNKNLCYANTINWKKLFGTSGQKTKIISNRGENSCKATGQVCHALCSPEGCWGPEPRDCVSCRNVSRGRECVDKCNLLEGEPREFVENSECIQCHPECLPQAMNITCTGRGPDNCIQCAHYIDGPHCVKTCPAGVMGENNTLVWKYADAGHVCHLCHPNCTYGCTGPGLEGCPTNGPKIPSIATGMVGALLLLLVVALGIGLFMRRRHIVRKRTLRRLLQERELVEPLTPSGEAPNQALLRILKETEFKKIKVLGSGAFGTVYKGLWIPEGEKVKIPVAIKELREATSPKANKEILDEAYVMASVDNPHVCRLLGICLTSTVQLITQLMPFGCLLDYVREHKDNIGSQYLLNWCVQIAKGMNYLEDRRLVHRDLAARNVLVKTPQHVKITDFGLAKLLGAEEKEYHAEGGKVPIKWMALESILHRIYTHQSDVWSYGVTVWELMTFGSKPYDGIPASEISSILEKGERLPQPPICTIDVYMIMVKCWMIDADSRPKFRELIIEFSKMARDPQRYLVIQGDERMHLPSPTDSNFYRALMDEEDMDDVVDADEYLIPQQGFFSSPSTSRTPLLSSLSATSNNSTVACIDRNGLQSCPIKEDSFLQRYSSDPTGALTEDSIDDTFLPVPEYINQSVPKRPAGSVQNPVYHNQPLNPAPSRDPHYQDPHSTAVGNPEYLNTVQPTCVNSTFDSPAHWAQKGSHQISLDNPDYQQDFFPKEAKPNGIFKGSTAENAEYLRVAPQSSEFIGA
Test [8] addresses Serine/threonine-protein kinase 24 (Homo sapiens) (UniProt Q9Y6E0). The experiment in a line: Selectivity interaction (KinomeScan (DiscoverX)) EUB0000655a STK24. To be noted: at 10 µM.
Test [9] deals with T2, Mitogen-activated protein kinase kinase kinase 6 (Homo sapiens) (UniProt O95382).
T2 sequence (whole entry): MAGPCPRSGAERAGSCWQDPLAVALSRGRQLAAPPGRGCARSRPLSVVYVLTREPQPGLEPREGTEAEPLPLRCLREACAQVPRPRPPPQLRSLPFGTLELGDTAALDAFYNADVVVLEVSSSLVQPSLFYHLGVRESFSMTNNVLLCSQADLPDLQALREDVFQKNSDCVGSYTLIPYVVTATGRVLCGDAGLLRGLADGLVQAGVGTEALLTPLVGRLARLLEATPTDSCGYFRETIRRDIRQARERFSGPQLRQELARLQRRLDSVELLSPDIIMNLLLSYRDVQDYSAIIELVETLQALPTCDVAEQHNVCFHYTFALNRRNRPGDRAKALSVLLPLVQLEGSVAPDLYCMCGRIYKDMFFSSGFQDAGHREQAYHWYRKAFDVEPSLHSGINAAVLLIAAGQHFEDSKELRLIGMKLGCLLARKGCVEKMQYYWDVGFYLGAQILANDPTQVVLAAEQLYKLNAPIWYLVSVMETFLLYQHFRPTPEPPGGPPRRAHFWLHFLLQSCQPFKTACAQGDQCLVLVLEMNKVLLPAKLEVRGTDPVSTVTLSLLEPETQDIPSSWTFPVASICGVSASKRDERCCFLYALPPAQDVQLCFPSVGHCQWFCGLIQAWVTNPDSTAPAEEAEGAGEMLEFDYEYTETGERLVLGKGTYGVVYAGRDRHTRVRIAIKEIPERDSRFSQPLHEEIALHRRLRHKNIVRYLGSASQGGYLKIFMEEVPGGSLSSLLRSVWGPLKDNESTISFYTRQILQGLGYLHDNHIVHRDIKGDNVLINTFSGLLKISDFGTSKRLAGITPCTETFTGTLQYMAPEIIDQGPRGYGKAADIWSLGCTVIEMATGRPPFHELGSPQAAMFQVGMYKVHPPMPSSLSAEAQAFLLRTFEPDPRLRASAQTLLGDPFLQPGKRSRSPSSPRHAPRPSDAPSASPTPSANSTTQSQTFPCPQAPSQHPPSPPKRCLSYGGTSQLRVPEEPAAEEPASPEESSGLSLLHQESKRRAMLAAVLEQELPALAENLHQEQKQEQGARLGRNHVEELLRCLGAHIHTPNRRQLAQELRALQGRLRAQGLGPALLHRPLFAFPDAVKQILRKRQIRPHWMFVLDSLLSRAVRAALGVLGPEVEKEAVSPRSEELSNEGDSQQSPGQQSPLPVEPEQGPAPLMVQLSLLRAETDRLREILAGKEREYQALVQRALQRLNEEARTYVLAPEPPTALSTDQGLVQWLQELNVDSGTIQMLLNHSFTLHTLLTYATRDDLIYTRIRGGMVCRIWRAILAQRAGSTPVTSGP
The experiment in a line: Selectivity interaction (KinomeScan (DiscoverX)) EUB0000655a MAP3K6. To be noted: at 10 µM.

Test [10] addresses Histone-lysine N-methyltransferase ASH1L (Homo sapiens) (UniProt Q9NR48). The experiment in a line: Selectivity interaction (Methyltransferase screen (radiometric assays, panel of 8 PRMTs, 21 protein lysine methyltransferases, 3 DNA methyltransferases, and one RNA methyltransferase)) EUB0000272b ASH1L.

Serine/threonine-protein kinase 25 (Homo sapiens), sequence (O00506 whole entry, looked up): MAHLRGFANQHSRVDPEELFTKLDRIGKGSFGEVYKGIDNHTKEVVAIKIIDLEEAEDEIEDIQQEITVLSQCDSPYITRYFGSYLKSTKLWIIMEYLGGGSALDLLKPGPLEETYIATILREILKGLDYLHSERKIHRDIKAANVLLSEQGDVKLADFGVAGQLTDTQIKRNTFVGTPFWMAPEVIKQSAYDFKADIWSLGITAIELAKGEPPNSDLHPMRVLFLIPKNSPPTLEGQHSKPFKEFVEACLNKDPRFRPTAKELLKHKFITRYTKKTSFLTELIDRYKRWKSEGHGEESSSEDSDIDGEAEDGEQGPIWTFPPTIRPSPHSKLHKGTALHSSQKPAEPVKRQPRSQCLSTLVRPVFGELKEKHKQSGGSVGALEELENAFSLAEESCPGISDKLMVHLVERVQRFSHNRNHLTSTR
Serine/threonine-protein kinase NIM1, sequence (Q8IY84 whole entry): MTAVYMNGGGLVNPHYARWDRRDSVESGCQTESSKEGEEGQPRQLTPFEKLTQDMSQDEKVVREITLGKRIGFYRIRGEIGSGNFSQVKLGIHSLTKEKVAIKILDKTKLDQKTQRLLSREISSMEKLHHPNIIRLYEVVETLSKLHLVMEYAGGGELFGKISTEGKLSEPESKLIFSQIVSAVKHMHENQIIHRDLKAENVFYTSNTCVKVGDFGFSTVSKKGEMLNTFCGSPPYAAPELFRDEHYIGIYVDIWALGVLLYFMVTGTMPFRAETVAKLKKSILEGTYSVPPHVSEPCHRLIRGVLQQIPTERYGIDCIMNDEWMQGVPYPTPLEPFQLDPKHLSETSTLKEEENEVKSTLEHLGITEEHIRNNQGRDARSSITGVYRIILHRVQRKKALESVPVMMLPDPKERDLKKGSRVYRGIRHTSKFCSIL
Rho-associated protein kinase 2, sequence (O75116 whole entry, looked up): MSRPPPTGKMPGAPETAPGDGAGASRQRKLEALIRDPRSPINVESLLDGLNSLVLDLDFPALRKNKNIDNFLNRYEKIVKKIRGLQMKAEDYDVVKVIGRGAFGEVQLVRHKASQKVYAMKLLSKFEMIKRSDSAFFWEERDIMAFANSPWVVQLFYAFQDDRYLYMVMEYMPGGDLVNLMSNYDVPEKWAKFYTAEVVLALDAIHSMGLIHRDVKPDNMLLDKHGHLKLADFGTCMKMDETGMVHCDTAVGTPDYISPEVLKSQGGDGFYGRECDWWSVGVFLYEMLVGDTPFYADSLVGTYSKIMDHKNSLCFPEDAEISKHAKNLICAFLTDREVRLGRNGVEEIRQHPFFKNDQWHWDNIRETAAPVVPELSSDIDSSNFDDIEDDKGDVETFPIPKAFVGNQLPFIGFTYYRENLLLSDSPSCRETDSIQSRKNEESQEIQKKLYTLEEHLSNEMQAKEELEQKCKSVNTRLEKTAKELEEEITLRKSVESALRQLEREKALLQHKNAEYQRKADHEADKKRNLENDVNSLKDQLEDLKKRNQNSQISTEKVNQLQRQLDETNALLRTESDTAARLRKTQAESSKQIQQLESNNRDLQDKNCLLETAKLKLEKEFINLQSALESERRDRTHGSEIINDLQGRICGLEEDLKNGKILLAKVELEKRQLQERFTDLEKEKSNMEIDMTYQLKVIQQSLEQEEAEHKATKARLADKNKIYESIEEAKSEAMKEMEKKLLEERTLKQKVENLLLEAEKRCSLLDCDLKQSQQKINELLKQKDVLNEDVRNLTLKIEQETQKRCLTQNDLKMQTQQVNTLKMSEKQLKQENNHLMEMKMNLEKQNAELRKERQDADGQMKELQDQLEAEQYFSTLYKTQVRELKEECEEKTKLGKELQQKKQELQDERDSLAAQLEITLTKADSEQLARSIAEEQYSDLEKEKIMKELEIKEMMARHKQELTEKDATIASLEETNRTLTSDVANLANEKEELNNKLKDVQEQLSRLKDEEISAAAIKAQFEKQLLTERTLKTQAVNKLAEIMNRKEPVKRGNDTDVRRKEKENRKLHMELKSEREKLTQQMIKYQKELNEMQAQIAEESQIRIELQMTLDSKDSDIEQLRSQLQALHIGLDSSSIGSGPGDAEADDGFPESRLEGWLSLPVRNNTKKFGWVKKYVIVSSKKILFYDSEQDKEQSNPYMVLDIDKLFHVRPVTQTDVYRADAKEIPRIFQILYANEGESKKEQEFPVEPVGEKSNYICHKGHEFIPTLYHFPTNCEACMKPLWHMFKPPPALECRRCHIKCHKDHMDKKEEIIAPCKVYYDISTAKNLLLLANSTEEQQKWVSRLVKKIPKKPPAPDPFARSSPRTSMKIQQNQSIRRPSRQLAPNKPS
Serine/threonine-protein kinase 24 (Homo sapiens), sequence (Q9Y6E0 whole entry, looked up): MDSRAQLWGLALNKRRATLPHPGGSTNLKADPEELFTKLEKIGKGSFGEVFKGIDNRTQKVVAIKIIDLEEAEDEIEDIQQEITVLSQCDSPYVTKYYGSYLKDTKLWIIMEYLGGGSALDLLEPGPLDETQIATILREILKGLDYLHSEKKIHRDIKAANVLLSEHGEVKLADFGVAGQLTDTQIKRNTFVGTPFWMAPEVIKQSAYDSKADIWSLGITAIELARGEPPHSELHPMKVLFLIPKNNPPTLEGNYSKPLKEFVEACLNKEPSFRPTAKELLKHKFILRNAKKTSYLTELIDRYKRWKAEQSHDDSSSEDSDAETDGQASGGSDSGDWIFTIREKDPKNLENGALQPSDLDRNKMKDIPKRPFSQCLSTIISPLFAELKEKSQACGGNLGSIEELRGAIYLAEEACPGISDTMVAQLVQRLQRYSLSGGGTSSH

Compound `COCC(=O)NC/C=C/c1ccc2ncnc(Nc3ccc(Oc4ccc(C)nc4)c(C)c3)c2c1` [CP-724714] returned a % of control in [1] of 94%.

As to `N#Cc1cccc(-c2c[nH]c3ncnc(N4CCOCC4)c23)c1`, the % of control in [2] is 99%.

As for `Cc1cnc(Nc2ccc(F)cc2Cl)nc1-c1c[nH]c(C(=O)N[C@H](CO)c2cccc(Cl)c2)c1`, the % of inhibition in test [3] was determined as 24%; in test [4], 57%.

In the case of `C=CC(=O)Nc1cc(-n2c(=O)ccc3cnc4ccc(-c5ccc(NS(C)(=O)=O)cc5)cc4c32)ccc1C`, the % of control in [5] (at 1 µM) and in [5] (at 10 µM) was 100% in each case.

Usually IC50 stands for the concentration at which inhibition is half-maximal. Low values mean greater potency in that assay, high ones weaker potency in that assay. For `CCc1cccc(CC)c1NC(=O)c1nn(C)c2c1CCc1cnc(Nc3ccc(C(=O)NC4CCN(C)CC4)cc3OC(F)(F)F)nc1-2`, the IC50 in [6] is more than 10 µM.

Turning to `CN(C)CCOc1ccc(-c2nc(-c3ccncc3)c(-c3ccc4c(c3)CC/C4=N\O)[nH]2)cc1`, the % of control in test [7] turned out to be 81%; in [8], 100%; in test [9] it was 100%.

With `Cc1cc(C)cc([C@H]2c3cc(C)ccc3NC(=O)CN2C(=O)c2ccc(Br)s2)c1`, the results for the % of activity in test [10] (at 1 µM) and in test [10] (at 10 µM) were 102% and 99.7%, respectively.

(Values after ChEMBL document CHEMBL5465560, “Selectivity Literature for EUbOPEN Chemogenomic Library” (2024).)
